Assay results from patent US5536729A, “Rapamycin formulations for oral administration” (priority 1994, dated 1996).

Assays:
[1] = set-up: species or system Cynomolgus monkeys; conditions: cynomolgus monkey, in vivo, po, 50 mg/kg
Description: Cynomolgus monkeys were administered the formulation above at a dose of 0.25 mg/kg of rapamycin and the following serum concentrations were determined at the indicated time after dosing.
Cynomolgus monkeys were administered the above formulation at a dose of 50 mg/kg of rapamycin and the following serum concentrations were determined at the indicated time after dosing.
Cynomolgus monkeys were administered this second comparative formulation at a dose of 50 mg/kg of rapamycin and the following serum concentrations were determined at the indicated time after dosing.

transplant rejection = conditions: useful in preventing transplant rejection; cited from earlier work
Candida albicans = conditions: cited from earlier work
Microsporum gypseum = conditions: cited from earlier work
[2] = test system: rejection in vivo in allograft transplantation; conditions: Calne 1989; Morris and Meiser 1989; cited from earlier work
tumor = conditions: in vivo; cited from earlier work
[3] = test system: experimental allergic encephalomyelitis; conditions: model for multiple sclerosis; Martel 1977; cited from earlier work
adjuvant arthritis = conditions: model for rheumatoid arthritis; Martel 1977; cited from earlier work
IgE-like antibodies = conditions: Martel 1977; cited from earlier work
[4] = test system: systemic lupus erythematosus; conditions: U.S. Pat. No. 5,078,999; cited from earlier work
pulmonary inflammation = conditions: U.S. Pat. No. 5,080,899; cited from earlier work
[5] = test system: insulin dependent diabetes mellitus; conditions: Fifth Int. Conf. Inflamm. Res. Assoc. 1990; cited from earlier work
[6] = test system: smooth muscle cell proliferation and intimal thickening; conditions: following vascular injury; Morris 1992; cited from earlier work
thymocyte = conditions: in vitro; cited from earlier work
[7] = cited from earlier work

SMILES | Rapamycin Concentration in Monkey Serum [1] | immunosuppressive effect (transplant rejection) | effect on growth of fungi (Candida albicans) | effect on growth of fungi (Microsporum gypseum) | inhibiting rejection in vivo in allograft transplantation [2] | antitumor activity (tumor) | efficacy in experimental allergic encephalomyelitis model [3] | efficacy in adjuvant arthritis model (adjuvant arthritis) | formation of IgE-like antibodies (IgE-like antibodies) | preventing or treating systemic lupus erythematosus [4] | preventing or treating pulmonary inflammation (pulmonary inflammation) | preventing or treating insulin dependent diabetes mellitus [5] | preventing or treating smooth muscle cell proliferation and intimal thickening [6] | thymocyte proliferation (thymocyte) | activity in vivo [7]
CO[C@H]1C[C@@H]2CC[C@@H](C)[C@@](O)(O2)C(=O)C(=O)N2CCCC[C@H]2C(=O)O[C@H]([C@H](C)C[C@@H]2CC[C@@H](O)[C@H](OC)C2)CC(=O)[C@H](C)/C=C(\C)[C@@H](O)[C@@H](OC)C(=O)[C@H](C)C[C@H](C)/C=C/C=C/C=C/1C [Comparative Example 2] | BDL (key: BDL: Below detection limit (detection limit = 0.006 μg/ml)) | – | – | – | – | – | – | – | – | – | – | – | – | – | –
C=CC[C@@H]1/C=C(\C)C[C@H](C)C[C@H](OC)[C@H]2O[C@@](O)(C(=O)C(=O)N3CCCC[C@H]3C(=O)O[C@H](/C(C)=C/[C@@H]3CC[C@@H](O)[C@H](OC)C3)[C@H](C)[C@@H](O)CC1=O)[C@H](C)C[C@@H]2OC [FK-506] | – | effective as immunosuppressive agents | – | – | – | – | – | – | – | – | – | – | – | – | –
CO[C@H]1C[C@@H]2CC[C@@H](C)[C@@](O)(O2)C(=O)C(=O)N2CCCC[C@H]2C(=O)O[C@H]([C@H](C)C[C@@H]2CC[C@@H](O)[C@H](OC)C2)CC(=O)[C@H](C)/C=C(\C)[C@@H](O)[C@@H](OC)C(=O)[C@H](C)C[C@H](C)/C=C/C=C/C=C/1C [Rapamycin, rapamycin] | – | immunosuppressive effects | adversely affects the growth of fungi | adversely affects the growth of fungi | effectiveness of rapamycin in inhibiting rejection in vivo in allograft transplantation | antitumor activity | effective | effective | effectively inhibited | useful in preventing or treating | useful in preventing or treating | useful in preventing or treating | useful in preventing or treating | inhibit thymocyte proliferation in vitro | immunosuppressive, antifungal and antiinflammatory activity in vivo
